The values that follow come from ChEMBL document CHEMBL4118189, “Discovery of novel N-hydroxy-2-arylisoindoline-4-carboxamides as potent and selective inhibitors of HDAC11” (Bioorg Med Chem Lett, 2018).

Data set [1] in a line: Intrinsic clearance in mouse liver microsomes. The format is ADME, microsome. Particulars: read-out: CLH. Background: Microsomes from liver hold many membrane-bound enzymes, among them those of drug oxidation.
Data set [2] is described as follows: Kinetic solubility of the compound at pH 7.4. The format is physicochemical. To be noted: buffer, read-out: Kinetic_solubility.
The nature of data set [3]: Permeability of the compound by PAMPA. The format is ADME. Particulars: read-out: permeability.
The target of a further data set is T1, Histone deacetylase 11 (Homo sapiens, UniProt Q96DB2).
T1 sequence (Q96DB2 whole entry): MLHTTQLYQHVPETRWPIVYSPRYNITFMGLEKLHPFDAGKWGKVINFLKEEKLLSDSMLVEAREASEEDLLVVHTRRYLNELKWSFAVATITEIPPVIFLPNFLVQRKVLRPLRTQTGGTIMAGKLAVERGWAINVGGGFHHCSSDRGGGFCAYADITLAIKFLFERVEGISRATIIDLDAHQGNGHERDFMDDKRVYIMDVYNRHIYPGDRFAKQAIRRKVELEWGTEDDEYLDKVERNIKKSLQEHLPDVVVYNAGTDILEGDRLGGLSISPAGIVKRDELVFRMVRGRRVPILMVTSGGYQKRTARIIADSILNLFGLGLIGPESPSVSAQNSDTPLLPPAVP
In words: Inhibition of NanoLuc-tagged HDAC11 (unknown origin) by BRET assay.

The target of another data set is Histone deacetylase 1 (Homo sapiens, UniProt Q13547). In words: Inhibition of full length recombinant human HDAC1 using fluorescent-labeled peptide as substrate by electrophoretic mobility shift assay.
Histone deacetylase 1, sequence (Q13547 whole entry): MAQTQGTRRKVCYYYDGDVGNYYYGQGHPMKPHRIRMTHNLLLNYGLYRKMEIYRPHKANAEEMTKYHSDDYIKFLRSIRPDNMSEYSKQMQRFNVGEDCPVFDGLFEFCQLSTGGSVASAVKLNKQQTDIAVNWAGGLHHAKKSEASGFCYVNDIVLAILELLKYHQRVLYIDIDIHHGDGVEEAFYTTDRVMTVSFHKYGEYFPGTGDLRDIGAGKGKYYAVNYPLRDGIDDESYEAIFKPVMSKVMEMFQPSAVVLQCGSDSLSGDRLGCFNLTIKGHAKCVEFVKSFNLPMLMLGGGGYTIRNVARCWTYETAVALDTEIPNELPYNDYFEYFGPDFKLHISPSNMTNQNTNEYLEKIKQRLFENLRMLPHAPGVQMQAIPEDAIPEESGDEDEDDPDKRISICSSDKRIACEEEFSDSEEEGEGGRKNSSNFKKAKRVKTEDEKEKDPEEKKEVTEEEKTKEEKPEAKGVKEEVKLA
The target in the next data set is Histone deacetylase 2 (Homo sapiens, UniProt Q92769). The data set can be described thus: Inhibition of full length recombinant human HDAC2 using fluorescent-labeled peptide as substrate by electrophoretic mobility shift assay. (In general: Mobility shift assays separate free from complexed probe on a gel.)
Histone deacetylase 2, sequence (Q92769 whole entry): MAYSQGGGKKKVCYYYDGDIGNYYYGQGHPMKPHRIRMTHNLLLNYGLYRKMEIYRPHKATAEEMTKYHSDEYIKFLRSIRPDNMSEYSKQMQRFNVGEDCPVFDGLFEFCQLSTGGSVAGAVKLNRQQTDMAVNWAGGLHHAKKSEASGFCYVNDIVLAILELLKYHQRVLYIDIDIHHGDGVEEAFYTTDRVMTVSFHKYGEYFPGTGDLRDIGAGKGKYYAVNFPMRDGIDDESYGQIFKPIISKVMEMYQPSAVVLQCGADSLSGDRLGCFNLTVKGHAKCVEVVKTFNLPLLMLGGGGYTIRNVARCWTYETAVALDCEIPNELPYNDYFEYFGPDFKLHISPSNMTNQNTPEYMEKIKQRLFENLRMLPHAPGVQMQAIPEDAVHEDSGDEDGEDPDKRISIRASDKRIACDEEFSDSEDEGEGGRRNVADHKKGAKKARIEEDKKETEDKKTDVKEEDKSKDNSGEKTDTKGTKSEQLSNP
In another data set the target is Histone deacetylase 3 (Homo sapiens, UniProt O15379). The data set can be described thus: Inhibition of full length recombinant human HDAC3 using fluorescent-labeled peptide as substrate by electrophoretic mobility shift assay.
Histone deacetylase 3, sequence (O15379 whole entry): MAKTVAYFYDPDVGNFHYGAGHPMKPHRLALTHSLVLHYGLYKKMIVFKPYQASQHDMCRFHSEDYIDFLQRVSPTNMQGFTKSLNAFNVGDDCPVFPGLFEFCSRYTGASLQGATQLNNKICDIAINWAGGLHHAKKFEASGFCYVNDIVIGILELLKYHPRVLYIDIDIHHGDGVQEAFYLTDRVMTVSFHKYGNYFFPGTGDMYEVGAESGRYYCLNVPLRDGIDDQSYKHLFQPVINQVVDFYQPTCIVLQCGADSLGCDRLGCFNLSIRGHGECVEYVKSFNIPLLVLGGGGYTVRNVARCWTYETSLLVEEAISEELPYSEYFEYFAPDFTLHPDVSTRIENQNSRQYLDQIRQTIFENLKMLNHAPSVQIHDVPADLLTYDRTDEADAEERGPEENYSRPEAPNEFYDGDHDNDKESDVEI
A further data set addresses Histone deacetylase 4 (Homo sapiens, UniProt P56524). The data set can be described thus: Inhibition of full length recombinant human HDAC4 using fluorescent-labeled peptide as substrate by electrophoretic mobility shift assay.
Another data set has as its target T2, Histone deacetylase 7 (Homo sapiens, UniProt Q8WUI4).
T2 sequence (Q8WUI4 whole entry): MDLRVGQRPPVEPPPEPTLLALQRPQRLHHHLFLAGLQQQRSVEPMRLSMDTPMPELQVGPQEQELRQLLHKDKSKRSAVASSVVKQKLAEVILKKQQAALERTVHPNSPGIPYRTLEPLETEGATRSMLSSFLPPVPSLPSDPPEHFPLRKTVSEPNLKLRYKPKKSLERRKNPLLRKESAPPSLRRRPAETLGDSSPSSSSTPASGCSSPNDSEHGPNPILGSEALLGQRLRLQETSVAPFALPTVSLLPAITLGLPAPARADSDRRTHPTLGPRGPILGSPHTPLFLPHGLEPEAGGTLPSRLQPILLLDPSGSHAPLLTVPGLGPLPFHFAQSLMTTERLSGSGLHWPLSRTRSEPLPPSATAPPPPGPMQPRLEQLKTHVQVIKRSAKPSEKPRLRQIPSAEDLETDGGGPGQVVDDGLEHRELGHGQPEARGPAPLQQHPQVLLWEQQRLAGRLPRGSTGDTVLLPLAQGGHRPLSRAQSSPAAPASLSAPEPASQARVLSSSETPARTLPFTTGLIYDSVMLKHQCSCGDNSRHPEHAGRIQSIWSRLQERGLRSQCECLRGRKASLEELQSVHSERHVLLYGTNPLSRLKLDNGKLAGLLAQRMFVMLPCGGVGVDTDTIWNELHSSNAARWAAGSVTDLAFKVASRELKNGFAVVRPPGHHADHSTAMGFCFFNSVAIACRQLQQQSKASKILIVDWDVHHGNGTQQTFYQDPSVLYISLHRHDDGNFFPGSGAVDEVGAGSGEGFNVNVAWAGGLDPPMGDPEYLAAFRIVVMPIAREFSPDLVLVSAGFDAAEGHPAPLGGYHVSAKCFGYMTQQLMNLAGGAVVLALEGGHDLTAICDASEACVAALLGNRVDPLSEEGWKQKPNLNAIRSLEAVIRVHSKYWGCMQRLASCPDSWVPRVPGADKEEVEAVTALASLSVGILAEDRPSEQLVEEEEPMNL
The data set can be described thus: Inhibition of full length recombinant human HDAC7 using fluorescent-labeled peptide as substrate by electrophoretic mobility shift assay.

In another data set the target is T3, Histone deacetylase 8 (Homo sapiens, UniProt Q9BY41).
T3 sequence (Q9BY41 whole entry): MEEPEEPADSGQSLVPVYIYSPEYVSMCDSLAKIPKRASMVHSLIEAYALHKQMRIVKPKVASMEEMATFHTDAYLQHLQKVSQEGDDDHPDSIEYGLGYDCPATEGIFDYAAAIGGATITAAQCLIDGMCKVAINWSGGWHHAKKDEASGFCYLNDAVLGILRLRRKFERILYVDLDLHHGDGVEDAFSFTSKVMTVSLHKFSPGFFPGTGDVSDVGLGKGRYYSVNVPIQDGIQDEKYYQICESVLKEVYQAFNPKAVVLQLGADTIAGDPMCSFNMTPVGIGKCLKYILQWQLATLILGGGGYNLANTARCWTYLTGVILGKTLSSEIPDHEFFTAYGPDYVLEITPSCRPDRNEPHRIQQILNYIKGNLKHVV
In words: Inhibition of full length recombinant human HDAC8 using fluorescent-labeled peptide as substrate by electrophoretic mobility shift assay.

Another data set concerns the target Histone deacetylase 9 (Homo sapiens, UniProt Q9UKV0). The data set can be described thus: Inhibition of full length recombinant human HDAC9 using fluorescent-labeled peptide as substrate by electrophoretic mobility shift assay.
For data set [4], the target named is T4, Polyamine deacetylase HDAC10 (Homo sapiens, UniProt Q969S8).
T4 sequence (Q969S8 whole entry): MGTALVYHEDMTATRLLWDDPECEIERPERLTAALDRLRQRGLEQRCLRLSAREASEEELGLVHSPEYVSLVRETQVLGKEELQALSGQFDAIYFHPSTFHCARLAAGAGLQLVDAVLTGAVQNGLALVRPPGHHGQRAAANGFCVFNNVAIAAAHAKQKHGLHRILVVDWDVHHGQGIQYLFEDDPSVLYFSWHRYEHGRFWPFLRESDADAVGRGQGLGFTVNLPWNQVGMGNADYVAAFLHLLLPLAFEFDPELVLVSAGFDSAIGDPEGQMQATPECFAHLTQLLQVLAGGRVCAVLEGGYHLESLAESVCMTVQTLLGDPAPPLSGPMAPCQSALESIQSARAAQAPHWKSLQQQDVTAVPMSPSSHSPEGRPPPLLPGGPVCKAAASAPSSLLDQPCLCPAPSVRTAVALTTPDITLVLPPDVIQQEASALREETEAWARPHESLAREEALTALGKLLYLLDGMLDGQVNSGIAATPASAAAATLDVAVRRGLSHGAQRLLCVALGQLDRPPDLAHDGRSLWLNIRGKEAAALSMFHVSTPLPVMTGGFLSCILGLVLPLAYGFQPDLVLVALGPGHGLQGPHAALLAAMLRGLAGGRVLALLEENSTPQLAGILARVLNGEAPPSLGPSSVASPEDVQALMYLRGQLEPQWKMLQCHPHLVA
The data set can be described thus: Inhibition of full length recombinant human HDAC10 using fluorescent-labeled peptide as substrate by electrophoretic mobility shift assay.

Values after ≈ are worked out from the molar mass of the structure shown. A value given as a limit tells only on which side of the number the result lay.

For orientation: IC50 means the concentration needed to halve the response being measured.

Histone deacetylase 9, sequence (Q9UKV0 whole entry): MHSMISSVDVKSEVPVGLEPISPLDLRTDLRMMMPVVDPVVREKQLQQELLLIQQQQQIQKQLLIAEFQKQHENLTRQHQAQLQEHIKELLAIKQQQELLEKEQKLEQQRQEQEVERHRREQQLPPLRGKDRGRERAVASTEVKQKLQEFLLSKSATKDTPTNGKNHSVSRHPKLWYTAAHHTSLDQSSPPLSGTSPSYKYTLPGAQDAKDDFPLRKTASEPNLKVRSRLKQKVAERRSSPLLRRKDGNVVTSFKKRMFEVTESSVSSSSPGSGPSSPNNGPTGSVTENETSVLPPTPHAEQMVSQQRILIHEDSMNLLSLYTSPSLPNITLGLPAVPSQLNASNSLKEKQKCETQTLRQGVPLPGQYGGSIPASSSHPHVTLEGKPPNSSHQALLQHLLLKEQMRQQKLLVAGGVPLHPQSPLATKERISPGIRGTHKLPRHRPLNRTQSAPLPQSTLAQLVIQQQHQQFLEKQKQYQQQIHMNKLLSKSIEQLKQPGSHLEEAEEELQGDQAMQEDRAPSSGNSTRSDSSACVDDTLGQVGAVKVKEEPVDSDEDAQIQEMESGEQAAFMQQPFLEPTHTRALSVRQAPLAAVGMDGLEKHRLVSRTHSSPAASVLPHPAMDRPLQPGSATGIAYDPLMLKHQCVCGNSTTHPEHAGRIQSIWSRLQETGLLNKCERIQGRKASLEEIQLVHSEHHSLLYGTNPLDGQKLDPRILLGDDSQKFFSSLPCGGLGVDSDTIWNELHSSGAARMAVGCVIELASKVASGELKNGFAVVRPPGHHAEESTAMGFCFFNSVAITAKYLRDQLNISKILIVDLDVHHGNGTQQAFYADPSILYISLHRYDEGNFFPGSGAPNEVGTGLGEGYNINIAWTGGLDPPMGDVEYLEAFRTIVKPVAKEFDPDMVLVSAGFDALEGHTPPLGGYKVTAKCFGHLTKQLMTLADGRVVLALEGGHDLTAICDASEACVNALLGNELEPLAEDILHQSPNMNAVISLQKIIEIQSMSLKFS
Histone deacetylase 4, sequence (P56524 whole entry): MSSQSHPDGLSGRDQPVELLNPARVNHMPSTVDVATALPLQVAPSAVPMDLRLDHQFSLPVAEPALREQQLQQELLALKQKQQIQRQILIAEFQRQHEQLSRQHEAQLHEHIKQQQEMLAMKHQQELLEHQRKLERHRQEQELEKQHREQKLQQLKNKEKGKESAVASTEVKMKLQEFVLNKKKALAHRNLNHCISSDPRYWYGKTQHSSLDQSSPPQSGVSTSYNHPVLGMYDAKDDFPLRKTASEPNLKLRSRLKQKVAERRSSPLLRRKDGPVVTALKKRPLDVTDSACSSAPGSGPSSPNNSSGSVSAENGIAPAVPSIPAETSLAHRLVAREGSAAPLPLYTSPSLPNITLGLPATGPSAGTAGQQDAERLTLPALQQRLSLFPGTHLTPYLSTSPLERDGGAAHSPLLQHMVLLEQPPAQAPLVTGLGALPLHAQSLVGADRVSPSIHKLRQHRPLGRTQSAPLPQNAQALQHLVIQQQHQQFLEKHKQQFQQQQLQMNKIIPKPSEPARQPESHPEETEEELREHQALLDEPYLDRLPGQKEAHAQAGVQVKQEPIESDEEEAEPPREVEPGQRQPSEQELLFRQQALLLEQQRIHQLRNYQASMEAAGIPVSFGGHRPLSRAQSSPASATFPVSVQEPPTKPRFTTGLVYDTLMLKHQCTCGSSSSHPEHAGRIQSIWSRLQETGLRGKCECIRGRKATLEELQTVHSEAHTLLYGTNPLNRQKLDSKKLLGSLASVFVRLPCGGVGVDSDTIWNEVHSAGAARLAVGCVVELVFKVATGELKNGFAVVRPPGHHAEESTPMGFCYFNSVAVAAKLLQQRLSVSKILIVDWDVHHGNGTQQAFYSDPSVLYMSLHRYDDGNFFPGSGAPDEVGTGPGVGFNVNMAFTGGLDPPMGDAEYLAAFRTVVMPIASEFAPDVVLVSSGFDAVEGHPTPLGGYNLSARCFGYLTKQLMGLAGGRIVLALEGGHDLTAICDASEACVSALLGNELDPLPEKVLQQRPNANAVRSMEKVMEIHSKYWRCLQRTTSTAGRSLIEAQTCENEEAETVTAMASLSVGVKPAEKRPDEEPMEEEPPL

Regarding `CC1(C)c2cccc(C(N)=O)c2CN1c1cnc(C(F)(F)F)cn1`, the microsomal CLint in [1] came to 7 µL/min/mg. Moreover, in data set [2], the solubility kinetic came to 0.3 µM (≈ 0.101 µg/mL). Also, the Papp in data set [3] worked out at 17 ×10⁻⁶ cm/s. Besides, the IC50 was more than 25 µM at Histone deacetylase 11; more than 10 µM on Histone deacetylase 1; more than 10 µM on Histone deacetylase 2; more than 10 µM on Histone deacetylase 3; more than 10 µM on Histone deacetylase 4; more than 10 µM on Histone deacetylase 7. In addition, the IC50 (at Histone deacetylase 8; at Histone deacetylase 9; in [4]) was more than 10 µM each time.
